Results as given in US10144713B1, “Bis-cyclic guanidines as antibacterial agents” (UNIVERSITY OF SOUTH FLORIDA, priority 2017, dated 2018).

What was measured:
Format in all cases: cell-based
E. coli (ATCC 25922) = assay: MIC against E. coli; conditions: Gram −, 16 h, 37° C.; for MIC: Escherichia coli, ATCC25922
Description: (§1) Minimum Inhibitory Concentrations (MICs) Against Bacteria.
(§2) The antimicrobial activity of the compounds was tested on the following six bacteria strains: K. pneumoniae (ATCC 13383), P. aeruginosa (ATCC27853), E. coli (ATCC 25922), vancomycin-resistant Enterococcus faecalis(ATCC 700802), Methicillin-resistant S. aureus (MRSA, ATCC 33591), Methicillin-resistant S. epidermidis (MRSE, RP62A). The procedures were followed as reported previously (Hancock et al., Immunobiology 2006, 211, 315-322). Briefly, a single colony of each bacterium was inoculated in 3 mL TSB medium and incubated overnight at 37° C. Then the bacteria culture was diluted at 1:100 and the bacteria were allowed to grow to mid-logarithmic phase. Next, 50 μL of 2-fold serial dilutions of compounds (0.1-25 μg/mL) were added the 96-well plate containing aliquots of 50 μL of bacteria suspension (1×10^6 CFU/mL) in each well. The mixture was incubated at 37° C. for 16 h, and their absorption at 600 nm wavelength was read on a Biotek Synergy HT microtiter plate reader. […] The experiments were repeated at least three times with duplicates each time. HC50 means the concentration causing 50% hemolysis.

[1] = test system: Methicillin-resistant S. aureus (MRSA, ATCC 33591); assay: MIC against MRSA; conditions: Gram +, 16 h, 37° C.; for MIC: Staphylococcus aureus
Description: as §1, §2

[2] = test system: P. aeruginosa (ATCC27853); assay: MIC against P. aeruginosa; conditions: Gram −, 16 h, 37° C.; for MIC: Pseudomonas aeruginosa, ATCC27853
Description: as §1, §2

[3] = test system: K. pneumoniae (ATCC 13383); assay: MIC against K. pneumoniae; conditions: Gram −, 16 h, 37° C.; for MIC: Klebsiella pneumoniae, ATCC13383
Description: as §1, §2

[4] = test system: Methicillin-resistant S. epidermidis (MRSE, RP62A); assay: MIC against MRSE; conditions: Gram +, 16 h, 37° C.; for MIC: Staphylococcus epidermidis, MRSE
Description: as §1, §2

[5] = test system: vancomycin-resistant Enterococcus faecalis (ATCC 700802); assay: MIC against VRE; conditions: Gram +; 16 h, 37° C.
Description: as §1, §2

[6] = test system: six bacteria strains (K. pneumoniae, P. aeruginosa, E. coli, VRE, MRSA, MRSE); assay: Antimicrobial activity on the panel of six bacteria strains
Description: as §1, §2

Compound: N=C1N[C@@H](Cc2ccccc2)CN1CC(=O)NCCCCNC(=O)CN1C[C@H](Cc2ccccc2)NC1=N [Compound 1]
- MIC (E. coli (ATCC 25922)): > 25 µg/mL
- MIC [1]: > 25 µg/mL

Compound: N=C1N[C@@H](Cc2ccccc2)CN1CC(=O)Nc1cccc(NC(=O)CN2C[C@H](Cc3ccccc3)NC2=N)c1 [Compound 2]
- MIC (E. coli (ATCC 25922)): > 25 µg/mL
- MIC [1]: > 25 µg/mL

Compound: CCN1C(=N)N(CC(=O)Nc2ccc(NC(=O)CN3C[C@H](Cc4ccccc4)N(CC)C3=N)cc2)C[C@@H]1Cc1ccccc1 [Compound 3]
- MIC (E. coli (ATCC 25922)): 1.5 µg/mL
- MIC [2]: > 25 µg/mL
- MIC [3]: > 25 µg/mL
- MIC MRSA [1]: 6~12 μg/mL
- MIC [1]: 6 to 12 µg/mL
- MIC [4]: > 25 µg/mL
- MIC [5]: > 25 µg/mL

Compound: CCN1C(=N)N(CC(=O)Nc2cccc(NC(=O)CN3C[C@H](Cc4ccccc4)N(CC)C3=N)c2)C[C@@H]1Cc1ccccc1 [Compound 4]
- MIC (E. coli (ATCC 25922)): 3 µg/mL
- MIC E. coli (E. coli (ATCC 25922)): 3.0 µg/mL
- MIC [2]: > 25 µg/mL
- MIC [3]: > 25 µg/mL
- MIC MRSA [1]: 6~12 μg/mL
- MIC [1]: 6 to 12 µg/mL
- MIC [4]: > 25 µg/mL
- MIC [5]: > 25 µg/mL

Compound: N#CNc1cccc(NC(=O)CN2C[C@H](Cc3ccccc3)N(CCCc3ccccc3)C2=N)c1 [Compound 7]
- MIC (E. coli (ATCC 25922)): > 25 µg/mL
- MIC [1]: 12 to 25 µg/mL
- antibacterial activity against the tested bacteria (in words) [6]: negligible activity

Compound: N=C1N(CC(=O)Nc2cccc(NC(N)=O)c2)C[C@H](Cc2ccccc2)N1CCCc1ccccc1 [Compound 8]
- MIC (E. coli (ATCC 25922)): > 25 µg/mL
- MIC [1]: 12 to 25 µg/mL
- antibacterial activity against the tested bacteria (in words) [6]: negligible activity

Compound: N=C1N(CC(=O)Nc2ccc(-c3ccc(NC(=O)CN4C[C@H](Cc5ccccc5)N(CCCc5ccccc5)C4=N)cc3)cc2)C[C@H](Cc2ccccc2)N1CCCc1ccccc1 [Compound 10]
- MIC (E. coli (ATCC 25922)): > 25 µg/mL
- MIC [1]: > 25 µg/mL
- antibacterial activity against the tested bacteria (in words) [6]: not active

Compound: CCCCCCCCN1C(=N)N(CC(=O)Nc2ccc(NC(=O)CN3C[C@H](Cc4ccccc4)N(CCCCCCCC)C3=N)cc2)C[C@@H]1Cc1ccccc1 [Compound 17]
- MIC (E. coli (ATCC 25922)): > 25 µg/mL
- MIC [1]: 1.5 µg/mL
- antibacterial activity against the tested bacteria (in words) [6]: decreased activity

Compound: CCCCCCCCN1C(=N)N(CC(=O)Nc2cccc(NC(=O)CN3C[C@H](Cc4ccccc4)N(CCCCCCCC)C3=N)c2)C[C@@H]1Cc1ccccc1 [Compound 18]
- MIC (E. coli (ATCC 25922)): > 25 µg/mL
- MIC [1]: 1.5 µg/mL
- antibacterial activity against the tested bacteria (in words) [6]: decreased activity

Compound: N=C1N(CC(=O)Nc2ccc(NC(=O)CN3C[C@H](Cc4ccccc4)N(CCC45CC6CC(CC(C6)C4)C5)C3=N)cc2)C[C@H](Cc2ccccc2)N1CCC12CC3CC(CC(C3)C1)C2 [Compound 21]
- MIC (E. coli (ATCC 25922)): > 25 µg/mL
- MIC [1]: 6 µg/mL

Compound: N=C1N(CC(=O)Nc2cccc(NC(=O)CN3C[C@H](Cc4ccccc4)N(CCC45CC6CC(CC(C6)C4)C5)C3=N)c2)C[C@H](Cc2ccccc2)N1CCC12CC3CC(CC(C3)C1)C2 [Compound 22]
- MIC (E. coli (ATCC 25922)): > 25 µg/mL
- MIC [1]: 3 µg/mL

Compound: CCCCCCCCCC(=O)N[C@@H](Cc1c[nH]c2ccccc12)C(=O)N[C@H](CC(N)=O)C(=O)N[C@@H](CC(=O)O)C(=O)N[C@@H]1C(=O)NCC(=O)N[C@@H](CCCN)C(=O)N[C@@H](CC(=O)O)C(=O)N[C@H](C)C(=O)N[C@@H](CC(=O)O)C(=O)NCC(=O)N[C@H](CO)C(=O)N[C@@H]([C@H](C)CC(=O)O)C(=O)N[C@@H](CC(=O)c2ccccc2N)C(=O)O[C@@H]1C [Daptomycin, reference compound]
- MIC (E. coli (ATCC 25922)): > 50 µg/mL
- MIC [2]: > 50 µg/mL
- MIC [3]: > 50 µg/mL
- MIC [1]: 0.5 µg/mL
- MIC [4]: 0.5 µg/mL
- MIC [5]: 1 µg/mL

Compound: Colistin [reference compound]
- MIC E. coli (E. coli (ATCC 25922)): 0.5 µg/mL
- MIC P. aeruginosa [2]: 1.0 µg/mL
- MIC K. pneumoniae [3]: 0.5 µg/mL
- MIC MRSA [1]: >50 µg/mL
- MIC MRSE [4]: >50 µg/mL
- MIC VRE [5]: >50 µg/mL
